Reference: ChEMBL document CHEMBL1909046, “DrugMatrix in vitro pharmacology data”

Columns and labels:
[1] = DRUGMATRIX: Sodium/nucleoside co-transporter radioligand binding (ligand: nitrobenzylthioinosine); format: cell membranes, Cavia porcellus, Dunkin-Hartley, Cerebral cortex, Membrane; conditions: Not Active = under 50% inhibition at 10 µM
[2] = biological target: T1, Alpha-1D adrenergic receptor (Homo sapiens, UniProt P25100); format: cell membranes, HEK293, Membrane; conditions: hek293; further: in other assays of this panel Not Active means under 50% inhibition at 10 µM
T1 sequence (P25100 whole entry): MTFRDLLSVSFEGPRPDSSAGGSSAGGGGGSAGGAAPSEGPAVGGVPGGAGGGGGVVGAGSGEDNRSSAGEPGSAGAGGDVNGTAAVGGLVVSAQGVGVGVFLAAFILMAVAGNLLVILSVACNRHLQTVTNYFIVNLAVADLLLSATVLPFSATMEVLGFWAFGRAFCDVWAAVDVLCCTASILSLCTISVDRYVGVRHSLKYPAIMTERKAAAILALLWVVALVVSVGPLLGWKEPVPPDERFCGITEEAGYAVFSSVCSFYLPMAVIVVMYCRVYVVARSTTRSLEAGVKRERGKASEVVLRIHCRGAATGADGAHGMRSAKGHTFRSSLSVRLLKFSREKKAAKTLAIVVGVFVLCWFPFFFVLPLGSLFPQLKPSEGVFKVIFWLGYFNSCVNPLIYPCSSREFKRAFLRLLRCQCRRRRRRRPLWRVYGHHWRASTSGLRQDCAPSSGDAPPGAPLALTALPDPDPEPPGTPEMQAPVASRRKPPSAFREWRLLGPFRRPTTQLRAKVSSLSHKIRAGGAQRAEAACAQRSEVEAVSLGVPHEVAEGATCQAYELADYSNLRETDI

[3] = biological target: T2, Alpha-2A adrenergic receptor (Homo sapiens, UniProt P08913); format: cell membranes, Sf9, Membrane; conditions: sf9; further: in other assays of this panel Not Active means under 50% inhibition at 10 µM
T2 sequence (P08913 whole entry): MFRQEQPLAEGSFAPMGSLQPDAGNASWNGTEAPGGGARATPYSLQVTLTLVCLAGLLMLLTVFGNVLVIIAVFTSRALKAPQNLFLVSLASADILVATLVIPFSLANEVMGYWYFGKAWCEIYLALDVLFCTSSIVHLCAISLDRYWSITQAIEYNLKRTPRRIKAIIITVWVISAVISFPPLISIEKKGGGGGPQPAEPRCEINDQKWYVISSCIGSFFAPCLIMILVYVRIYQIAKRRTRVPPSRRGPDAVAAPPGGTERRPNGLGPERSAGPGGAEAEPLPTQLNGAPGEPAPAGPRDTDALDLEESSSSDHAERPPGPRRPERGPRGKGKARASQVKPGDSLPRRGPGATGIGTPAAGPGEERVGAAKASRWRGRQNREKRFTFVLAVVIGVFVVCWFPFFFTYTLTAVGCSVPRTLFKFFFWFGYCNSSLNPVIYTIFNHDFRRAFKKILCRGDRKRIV

[4] = biological target: Aldo-keto reductase family 1 member B1 (Rattus norvegicus, UniProt P07943); format: tissue-based, Lens of camera-type eye;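 further: inhibition of aldose reductase enzyme activity, measured with DL-glyceraldehyde as the substrate; in other assays of this panel Not Active means under 50% inhibition at 10 µM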
[5] = DRUGMATRIX: Atrial Natriuretic Factor (ANF) radioligand binding (ligand: [125I] ANF (rat)); format: cell membranes, Cavia porcellus, Dunkin-Hartley, Adrenal gland, Membrane; conditions: Not Active = under 50% inhibition at 10 µM
[6] = biological target: Substance-P receptor (Homo sapiens, UniProt P25103); format: cell membranes, CHO, Membrane; conditions: cho; further: in other assays of this panel Not Active means under 50% inhibition at 10 µM
Substance-P receptor, sequence (P25103 whole entry): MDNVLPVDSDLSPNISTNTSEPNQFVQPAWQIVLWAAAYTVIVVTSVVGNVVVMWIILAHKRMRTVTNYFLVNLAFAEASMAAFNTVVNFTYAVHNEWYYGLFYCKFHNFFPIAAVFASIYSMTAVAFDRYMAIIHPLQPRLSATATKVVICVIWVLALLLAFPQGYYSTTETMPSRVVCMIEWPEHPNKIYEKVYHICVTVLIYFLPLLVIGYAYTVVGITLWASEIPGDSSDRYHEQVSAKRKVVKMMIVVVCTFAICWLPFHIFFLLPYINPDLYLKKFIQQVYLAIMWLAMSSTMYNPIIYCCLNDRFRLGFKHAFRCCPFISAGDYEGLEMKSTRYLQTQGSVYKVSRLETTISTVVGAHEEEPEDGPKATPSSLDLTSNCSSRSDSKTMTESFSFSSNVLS

[7] = DRUGMATRIX: Glutamate, NMDA, Agonism radioligand binding (ligand: [3H] CGP-39653); format: cell membranes, Rattus norvegicus, Wistar, Cerebral cortex, Membrane; conditions: Not Active = under 50% inhibition at 10 µM
[8] = DRUGMATRIX: Leukotriene, BLT (LTB4) radioligand binding (ligand: [3H]LTB4); format: cell membranes, Membrane; conditions: u-937; Not Active = under 50% inhibition at 10 µM
[9] = biological target: Melanocortin receptor 5 (Homo sapiens, UniProt P33032); format: cell membranes, HEK293, Membrane; conditions: hek293; further: in other assays of this panel Not Active means under 50% inhibition at 10 µM
Melanocortin receptor 5, sequence (P33032 whole entry): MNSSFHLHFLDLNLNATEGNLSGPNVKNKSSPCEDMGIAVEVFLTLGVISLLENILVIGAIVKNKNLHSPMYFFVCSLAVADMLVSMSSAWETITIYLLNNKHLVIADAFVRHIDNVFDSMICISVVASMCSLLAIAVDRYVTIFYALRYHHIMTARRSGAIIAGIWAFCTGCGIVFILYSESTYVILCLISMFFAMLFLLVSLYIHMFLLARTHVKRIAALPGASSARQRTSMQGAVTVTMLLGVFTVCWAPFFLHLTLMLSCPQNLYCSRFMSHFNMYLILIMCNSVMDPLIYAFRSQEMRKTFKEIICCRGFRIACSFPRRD

[10] = biological target: T3, Muscarinic acetylcholine receptor M2 (Homo sapiens, UniProt P08172); format: cell membranes, CHO-K1, Membrane; conditions: cho-k1; further: in other assays of this panel Not Active means under 50% inhibition at 10 µM
T3 sequence (P08172 whole entry): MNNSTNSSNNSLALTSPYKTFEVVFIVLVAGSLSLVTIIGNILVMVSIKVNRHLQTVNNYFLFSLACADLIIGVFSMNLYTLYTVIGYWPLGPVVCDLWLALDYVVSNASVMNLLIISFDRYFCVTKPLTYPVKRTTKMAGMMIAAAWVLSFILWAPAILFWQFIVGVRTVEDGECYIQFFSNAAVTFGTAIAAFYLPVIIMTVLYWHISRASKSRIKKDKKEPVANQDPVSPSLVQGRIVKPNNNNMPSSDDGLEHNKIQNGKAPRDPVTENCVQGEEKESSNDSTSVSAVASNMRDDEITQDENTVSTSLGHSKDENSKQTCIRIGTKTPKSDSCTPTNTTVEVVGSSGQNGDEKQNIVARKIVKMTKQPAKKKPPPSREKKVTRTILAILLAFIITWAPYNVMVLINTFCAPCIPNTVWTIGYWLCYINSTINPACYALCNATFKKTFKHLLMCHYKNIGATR

[11] = biological target: Adenosine receptor A2a (Homo sapiens, UniProt P29274); assay: DRUGMATRIX: Adenosine A2A radioligand binding (ligand: […]); format: cell membranes, HEK293, Membrane; conditions: hek293; Not Active = under 50% inhibition at 10 µM
Adenosine receptor A2a, sequence (P29274 whole entry): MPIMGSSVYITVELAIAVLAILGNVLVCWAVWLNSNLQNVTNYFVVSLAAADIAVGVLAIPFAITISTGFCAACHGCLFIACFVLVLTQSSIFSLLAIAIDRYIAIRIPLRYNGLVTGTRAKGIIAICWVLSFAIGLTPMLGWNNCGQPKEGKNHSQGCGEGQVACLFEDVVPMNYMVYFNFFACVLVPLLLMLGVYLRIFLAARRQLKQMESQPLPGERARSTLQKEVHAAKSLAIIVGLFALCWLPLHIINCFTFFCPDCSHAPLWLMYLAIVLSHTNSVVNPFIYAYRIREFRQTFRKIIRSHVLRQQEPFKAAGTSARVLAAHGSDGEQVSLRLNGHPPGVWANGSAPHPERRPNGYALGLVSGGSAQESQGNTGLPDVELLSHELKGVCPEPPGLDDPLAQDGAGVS

[12] = biological target: T4, Adenosine receptor A3 (Homo sapiens, UniProt P0DMS8); format: cell membranes, CHO-K1, Membrane; conditions: cho-k1
T4 sequence (P0DMS8 whole entry): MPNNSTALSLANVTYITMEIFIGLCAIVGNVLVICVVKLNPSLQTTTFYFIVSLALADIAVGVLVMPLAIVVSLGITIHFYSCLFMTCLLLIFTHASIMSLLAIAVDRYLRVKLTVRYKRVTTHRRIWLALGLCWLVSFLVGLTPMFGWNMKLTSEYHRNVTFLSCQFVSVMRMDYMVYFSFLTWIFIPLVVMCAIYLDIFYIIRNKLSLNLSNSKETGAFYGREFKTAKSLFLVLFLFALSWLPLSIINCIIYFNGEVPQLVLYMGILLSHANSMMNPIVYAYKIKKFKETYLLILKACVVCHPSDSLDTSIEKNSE

CC1COc2c(N3CCN(C)CC3)c(F)cc3c(=O)c(C(=O)O)cn1c23 (stereo not given) [OFLOXACIN]
Not Active: IC50 [1] | Ki [1] | IC50 [2] | IC50 [3] | IC50 [4] | IC50 [5] | Ki [5] | IC50 [6] | IC50 [7] | Ki [7] | IC50 [8] | Ki [8] | IC50 [9] | IC50 [10] | IC50 [11] | IC50 [12]

Oc1cccc2cccnc12 [OXYQUINOLINE]
Not Active: IC50 [1] | Ki [1] | IC50 [2] | IC50 [3] | IC50 [4] | IC50 [5] | Ki [5] | IC50 [6] | IC50 [7] | Ki [7] | IC50 [8] | Ki [8] | IC50 [9] | IC50 [10] | IC50 [11] | IC50 [12]

CN(C)[C@@H]1C(O)=C(C(N)=O)C(=O)[C@@]2(O)C(O)=C3C(=O)c4c(O)cccc4[C@@](C)(O)[C@H]3[C@H](O)[C@@H]12 [OXYTETRACYCLINE]
Not Active: IC50 [1] | Ki [1] | IC50 [2] | IC50 [3] | IC50 [4] | IC50 [5] | Ki [5] | IC50 [6] | IC50 [7] | Ki [7] | IC50 [8] | Ki [8] | IC50 [9] | IC50 [10] | IC50 [11] | IC50 [12]

CC(C)(S)[C@@H](N)C(=O)O [PENICILLAMINE]
Not Active: IC50 [1] | Ki [1] | IC50 [2] | IC50 [3] | IC50 [4] | IC50 [5] | Ki [5] | IC50 [6] | IC50 [7] | Ki [7] | IC50 [8] | Ki [8] | IC50 [9] | IC50 [10] | IC50 [11] | IC50 [12]

CC(=O)CCCCn1c(=O)c2c(ncn2C)n(C)c1=O [PENTOXIFYLLINE]
Not Active: IC50 [1] | Ki [1] | IC50 [2] | IC50 [3] | IC50 [4] | IC50 [5] | Ki [5] | IC50 [6] | IC50 [7] | Ki [7] | IC50 [8] | Ki [8] | IC50 [9] | IC50 [10] | IC50 [11] | IC50 [12]

O=C1NC(=O)C(c2ccccc2)(c2ccccc2)N1 [PHENYTOIN]
Not Active: IC50 [1] | Ki [1] | IC50 [2] | IC50 [3] | IC50 [4] | IC50 [5] | Ki [5] | IC50 [6] | IC50 [7] | Ki [7] | IC50 [8] | Ki [8] | IC50 [9] | IC50 [10] | IC50 [11] | IC50 [12]

CNC(=O)Oc1ccc2c(c1)[C@]1(C)CCN(C)[C@@H]1N2C [PHYSOSTIGMINE]
Not Active: IC50 [1] | Ki [1] | IC50 [2] | IC50 [3] | IC50 [4] | IC50 [5] | Ki [5] | IC50 [6] | IC50 [7] | Ki [7] | IC50 [8] | Ki [8] | IC50 [9] | IC50 [10] | IC50 [11] | IC50 [12]

C=C(C)[C@@H]1[C@H]2OC(=O)[C@@H]1[C@]1(O)C[C@H]3O[C@]34C(=O)O[C@H]2[C@]14C [PICROTOXININ]
Not Active: IC50 [1] | Ki [1] | IC50 [2] | IC50 [3] | IC50 [4] | IC50 [5] | Ki [5] | IC50 [6] | IC50 [7] | Ki [7] | IC50 [8] | Ki [8] | IC50 [9] | IC50 [10] | IC50 [11] | IC50 [12]

CN1C(C(=O)Nc2ccccn2)=C(O)c2ccccc2S1(=O)=O [PIROXICAM]
Not Active: IC50 [1] | Ki [1] | IC50 [2] | IC50 [3] | IC50 [4] | IC50 [5] | Ki [5] | IC50 [6] | IC50 [7] | Ki [7] | IC50 [8] | Ki [8] | IC50 [9] | IC50 [10] | IC50 [11] | IC50 [12]

CCC1(c2ccccc2)C(=O)NCNC1=O [PRIMIDONE]
Not Active: IC50 [1] | Ki [1] | IC50 [2] | IC50 [3] | IC50 [4] | IC50 [5] | Ki [5] | IC50 [6] | IC50 [7] | Ki [7] | IC50 [8] | Ki [8] | IC50 [9] | IC50 [10] | IC50 [11] | IC50 [12]
